Measurements from ChEMBL document CHEMBL4627373, “Antitubercular Ilamycins from Marine-Derived Streptomyces atratus SCSIO ZH16 ΔilaR” (J Nat Prod, 2020).
*1 amine or outer side, *2 acyl side, *3 side chain or, on linkers, in order; H or OH if unused. Where a SMILES comes first, the peptide text is derived from it. [ ]: non-standard residue; d: D form. Trp(1-(1,1-Me2-allyl)) = C=CC(C)(C)n1cc(C[C@H](N)C(=O)O)c2ccccc21; X6 = C=C[C@](C)(CO)n1cc(C[C@H](N[*:1])C(=O)[*:2])c2ccccc21; Tyr(3-NO2) = N[C@@H](Cc1ccc(O)c([N+](=O)[O-])c1)C(=O)O; X7 = CN([C@@H](C[C@@](C)(O)C(=O)O)C(=O)[*:2])[*:1]; X2 = CN([C@@H](C[C@H](CO)C(=O)O)C(=O)[*:2])[*:1]; X4 = C[C@H](C[C@@H](C(=O)[*:2])N(C)[*:1])C(=O)O; X1 = CN([C@@H](C[C@@](C)(O)CO)C(=O)[*:2])[*:1]; X5 = O=CNc1cc(C[C@H](N[*:1])C(=O)[*:2])ccc1O; X3 = CN([C@@H](CC(CO)CO)C(=O)[*:2])[*:1]; Gly(E-crotyl) = C/C=C/C[C@H](N)C(=O)O; NMeMet(O) = CN[C@@H](CCS(C)=O)C(=O)O; NMeL = CN[C@@H](CC(C)C)C(=O)O

Experiments:
[1] = tested on: Mycobacterium tuberculosis; test: Antitubercular activity against Mycobacterium tuberculosis H37Rv assessed as reduction in microbial growth by broth dilution method; format: functional
[2] = Cytotoxicity against human HUVEC12 cells assessed as reduction in cell viability after 24 hrs by CCK8 assay; format: cell-based
HepG2 = test: Cytotoxicity against human HepG2 cells assessed as reduction in cell viability after 24 hrs by CCK8 assay; format: functional, cell-based; conditions: HepG2, 24 h
L02 = test: Cytotoxicity against human LO2 cells assessed as reduction in cell viability after 24 hrs by CCK8 assay; format: cell-based; conditions: L02, 24 h
HeLa = test: Cytotoxicity against human HeLa cells assessed as reduction in cell viability after 24 hrs by CCK8 assay; format: functional, cell-based
RKO = test: Cytotoxicity against human RKO cells assessed as reduction in cell viability after 24 hrs by CCK8 assay; format: functional, cell-based
A549 = test: Cytotoxicity against human A549 cells assessed as reduction in cell viability after 24 hrs by CCK8 assay; format: functional, cell-based; conditions: A549, 24 h
MCF7 = test: Cytotoxicity against human MCF7 cells assessed as reduction in cell viability after 24 hrs by CCK8 assay; format: functional, cell-based; conditions: MCF7, 24 h

Row | Structure (SMILES) | MIC [1] | IC50 [2] | IC50 (HepG2) | IC50 (L02) | IC50 (HeLa) | IC50 (RKO) | IC50 (A549) | IC50 (MCF7)
1 | C=CC(C)(C)n1cc(C[C@@H]2NC(=O)[C@H](C/C=C/C)NC(=O)[C@H](CC(C)C)NC(=O)[C@H](C[C@@H](C)C(=O)O)N(C)C(=O)[C@H](C)NC(=O)[C@H](Cc3ccc(O)cc3)NC(=O)[C@H](CC(C)C)N(C)C2=O)c2ccccc21 (cyclo(A[X4]L[Gly(E-crotyl)][Trp(1-(1,1-Me2-allyl))][NMeL]Y)) | 10 µM | > 50 µM | > 50 µM | > 50 µM | > 50 µM | > 50 µM | > 50 µM | > 50 µM
2 | C=C[C@](C)(CO)n1cc(C[C@@H]2NC(=O)[C@H](C/C=C/C)NC(=O)[C@H](CC(C)C)NC(=O)[C@H](C[C@@](C)(O)C(=O)O)N(C)C(=O)[C@H](C)NC(=O)[C@H](Cc3ccc(O)c([N+](=O)[O-])c3)NC(=O)[C@H](CC(C)C)N(C)C2=O)c2ccccc21 (cyclo(A[X7]L[Gly(E-crotyl)][X6][NMeL][Tyr(3-NO2)])) | 0.24 µM | > 50 µM | > 50 µM | > 50 µM | > 50 µM | > 50 µM | > 50 µM | > 50 µM
3 | C=CC(C)(C)n1cc(C[C@@H]2NC(=O)[C@H](C/C=C/C)NC(=O)[C@H](CC(C)C)N3C(=O)[C@H](C[C@H](C)[C@H]3OC)N(C)C(=O)[C@H](C)NC(=O)[C@H](Cc3cccc([N+](=O)[O-])c3)NC(=O)[C@H](CC(C)C)N(C)C2=O)c2ccccc21 | 1.2 µM | – | – | – | – | – | – | –
4 | CO[C@H]1/C=C/O[C@@]2(C)Oc3c(C)c(O)c4c(O)c(c(/C=N/N5CCN(C)CC5)c(O)c4c3C2=O)NC(=O)/C(C)=C\C=C\[C@H](C)[C@H](O)[C@@H](C)[C@@H](O)[C@@H](C)[C@H](OC(C)=O)[C@@H]1C [RIFAMPIN] | 0.3 µM | – | – | – | – | – | – | –
5 | C=C[C@](C)(CO)n1cc(C[C@@H]2NC(=O)[C@H](C/C=C/C)NC(=O)[C@H](CC(C)C)N3C(=O)[C@H](C[C@H](C)[C@H]3O)N(C)C(=O)[C@H](C)NC(=O)[C@H](Cc3ccc(O)c([N+](=O)[O-])c3)NC(=O)[C@H](CC(C)C)N(C)C2=O)c2ccccc21 | 0.0096 µM | 47 µM | > 50 µM | 31 µM | 28 µM | 19 µM | 34 µM | 33 µM
6 | C=CC(C)(C)n1cc(C[C@@H]2NC(=O)[C@H](C/C=C/C)NC(=O)[C@H](CC(C)C)N3C(=O)[C@H](C[C@@H](CO)[C@H]3O)N(C)C(=O)[C@H](C)NC(=O)[C@H](Cc3ccc(O)c([N+](=O)[O-])c3)NC(=O)[C@H](CC(C)C)N(C)C2=O)c2ccccc21 | 1.4 µM | 12 µM | 22 µM | 16 µM | 7.2 µM | 7.3 µM | 19 µM | 5.6 µM
7 | C=CC(C)(C)n1cc(C[C@@H]2NC(=O)[C@H](C/C=C/C)NC(=O)[C@H](CC(C)C)NC(=O)[C@H](C[C@H](CO)C(=O)O)N(C)C(=O)[C@H](C)NC(=O)[C@H](Cc3ccc(O)c([N+](=O)[O-])c3)NC(=O)[C@H](CC(C)C)N(C)C2=O)c2ccccc21 (cyclo(A[X2]L[Gly(E-crotyl)][Trp(1-(1,1-Me2-allyl))][NMeL][Tyr(3-NO2)])) | 9.5 µM | > 50 µM | > 50 µM | > 50 µM | > 50 µM | > 50 µM | > 50 µM | > 50 µM
8 | C=CC(C)(C)n1cc(C[C@@H]2NC(=O)[C@H](C/C=C/C)NC(=O)[C@H](CC(C)C)NC(=O)[C@H](C[C@@H](C)C(=O)O)N(C)C(=O)[C@H](C)NC(=O)[C@H](Cc3ccc(O)c([N+](=O)[O-])c3)NC(=O)[C@H](CC(C)C)N(C)C2=O)c2ccccc21 (cyclo(A[X4]L[Gly(E-crotyl)][Trp(1-(1,1-Me2-allyl))][NMeL][Tyr(3-NO2)])) | 1.2 µM | > 50 µM | > 50 µM | > 50 µM | > 50 µM | > 50 µM | > 50 µM | > 50 µM
9 | C=CC(C)(C)n1cc(C[C@@H]2NC(=O)[C@H](C/C=C/C)NC(=O)[C@H](CC(C)C)NC(=O)[C@H](CC[S+](C)[O-])N(C)C(=O)[C@H](C)NC(=O)[C@H](Cc3ccc(O)c([N+](=O)[O-])c3)NC(=O)[C@H](CC(C)C)N(C)C2=O)c2ccccc21 (some centres not stated) (cyclo(A[NMeMet(O)]L[Gly(E-crotyl)][Trp(1-(1,1-Me2-allyl))][NMeL][Tyr(3-NO2)])) | 1.4 µM | 28 µM | 29 µM | > 50 µM | 14 µM | 37 µM | 25 µM | 22 µM
10 | C=CC(C)(C)n1cc(C[C@@H]2NC(=O)[C@H](C/C=C/C)NC(=O)[C@H](CC(C)C)NC(=O)[C@H](C[C@@](C)(O)CO)N(C)C(=O)[C@H](C)NC(=O)[C@H](Cc3ccc(O)c([N+](=O)[O-])c3)NC(=O)[C@H](CC(C)C)N(C)C2=O)c2ccccc21 (cyclo(A[X1]L[Gly(E-crotyl)][Trp(1-(1,1-Me2-allyl))][NMeL][Tyr(3-NO2)])) | 2.3 µM | > 50 µM | > 50 µM | > 50 µM | 49 µM | > 50 µM | > 50 µM | > 50 µM
11 | COc1cccc2c1C(=O)c1c(O)c3c(c(O)c1C2=O)C[C@@](O)(C(=O)CO)C[C@@H]3O[C@H]1C[C@H](N)[C@H](O)[C@H](C)O1 [DOXORUBICIN] | – | 4 µM | 0.8 µM | – | 0.5 µM | 0.3 µM | 0.7 µM | 0.4 µM
12 | C=C[C@](C)(CO)n1cc(C[C@@H]2NC(=O)[C@H](C/C=C/C)NC(=O)[C@H](CC(C)C)NC(=O)[C@H](C[C@@H](C)C(=O)O)N(C)C(=O)[C@H](C)NC(=O)[C@H](Cc3ccc(O)c([N+](=O)[O-])c3)NC(=O)[C@H](CC(C)C)N(C)C2=O)c2ccccc21 (cyclo(A[X4]L[Gly(E-crotyl)][X6][NMeL][Tyr(3-NO2)])) | 9.5 µM | 48 µM | > 50 µM | 49 µM | 45 µM | > 50 µM | 30 µM | > 50 µM
13 | C=CC(C)(C)n1cc(C[C@@H]2NC(=O)[C@H](C/C=C/C)NC(=O)[C@H](CC(C)C)NC(=O)[C@H](C[C@@H](C)C(=O)O)N(C)C(=O)[C@H](C)NC(=O)[C@H](Cc3ccc(O)c(NC=O)c3)NC(=O)[C@H](CC(C)C)N(C)C2=O)c2ccccc21 (cyclo(A[X4]L[Gly(E-crotyl)][Trp(1-(1,1-Me2-allyl))][NMeL][X5])) | 9.6 µM | > 50 µM | > 50 µM | > 50 µM | > 50 µM | > 50 µM | > 50 µM | > 50 µM
14 | C=CC(C)(C)n1cc(C[C@@H]2NC(=O)[C@H](C/C=C/C)NC(=O)[C@H](CC(C)C)N3C(=O)[C@H](C[C@H](C)[C@H]3O)N(C)C(=O)[C@H](C)NC(=O)[C@H](Cc3ccc(O)c([N+](=O)[O-])c3)NC(=O)[C@H](CC(C)C)N(C)C2=O)c2ccccc21 | 0.0098 µM | 15 µM | 3.7 µM | 10 µM | 3.1 µM | 7.5 µM | 4.3 µM | 3.1 µM
15 | C=CC(C)(C)n1cc(C[C@@H]2NC(=O)[C@H](C/C=C/C)NC(=O)[C@H](CC(C)C)NC(=O)[C@H](CC(CO)CO)N(C)C(=O)[C@H](C)NC(=O)[C@H](Cc3ccc(O)c([N+](=O)[O-])c3)NC(=O)[C@H](CC(C)C)N(C)C2=O)c2ccccc21 (cyclo(A[X3]L[Gly(E-crotyl)][Trp(1-(1,1-Me2-allyl))][NMeL][Tyr(3-NO2)])) | 1.2 µM | > 50 µM | > 50 µM | > 50 µM | 17 µM | 41 µM | > 50 µM | 38 µM
16 | C=C[C@](C)(CO)n1cc(C[C@@H]2NC(=O)[C@H](C/C=C/C)NC(=O)[C@H](CC(C)C)N3C(=O)[C@H](C[C@@](C)(O)[C@H]3O)N(C)C(=O)[C@H](C)NC(=O)[C@H](Cc3ccc(O)c([N+](=O)[O-])c3)NC(=O)[C@H](CC(C)C)N(C)C2=O)c2ccccc21 | 1.4 µM | > 50 µM | > 50 µM | 22 µM | 14 µM | 22 µM | > 50 µM | 27 µM
